Measured values: patent US20110230467A1, “4,6-DIAMINONICOTINAMIDE COMPOUND” (Astellas Pharma Inc., priority 2008, published 2011)

target: T1, human JAK3 kinase domain (Homo sapiens, UniProt P52333); test: JAK3 Inhibition Test (Test Example 1); format: biochemical; conditions: purified human JAK3 kinase domain; 20 μM ATP in substrate solution; absorbance at 450 nm; read-out: IC50 (JAK3 inhibitory activity)
T1 construct: attached to the N-terminal of the 796-1124 (C-terminal) fragment of the human JAK3 protein; His-tag (N); purchased Carna Biosciences, Inc. (Kobe, Japan); host or cells: baculovirus expression system
Text: (1) Preparation of Human JAK3
Purified human JAK3 kinase domain was purchased from Carna Biosciences, Inc. (Kobe, Japan). This was afforded as described below. His-tag (41 kDa) was attached to the N-terminal of the 796-1124 (C-terminal) fragment of the human JAK3 protein (accession number #NM_000215), expressed using a baculovirus expression system, and then purified using Ni-NTA affinity column chromatography.
(2) Measurement of JAK3 Activity
As substrates, Biotin-Lyn-Substrate-2 (Biotin-XEQED EPEGF YFEWL EPE), X=ε-Acp (Peptide Institute, Inc., Osaka, Japan) and ATP were used. As an assay buffer, 15 mM Tris-HCl, pH 7.5, containing 0.01% Tween 20, and 2 mM DTT (dithiothreitol) was used. Normally, 20 μL of a substrate solution (an assay buffer containing 627 nM Biotin-Lyn-Substrate-2, 20 μM ATP, and 25 mM MgCl2), an assay buffer containing 10 μL of a compound to be tested, and 20 μL of an enzyme solution were added to a microplate, and stirred sufficiently.
After incubation at room temperature for one hour, the plate was washed with a cleaning buffer (50 mM Tris-HCl pH 7.5, 150 mM NaCl, 0.02% Tween 20), and a blocking buffer (a cleaning buffer containing 0.1% Bovine Serum Albumin) was added to the plate. After incubation at room temperature for 30 minutes, the blocking buffer was removed, and an HRP-PY-20 solution (afforded by diluting the HRP-PY-20 solution with the blocking buffer 500 times) was added. After incubation at room temperature for 30 minutes, the plate was washed four times, and a TMB substrate solution (Sigma) was added to the plate. After incubation at room temperature for 4 minutes, 1 M sulfuric acid was added to stop the reaction. Enzyme activity was measured as an absorbance at 450 nm. The JAK3 inhibitory activity of the test compound was calculated assuming that the concentration of the test compound inhibiting JAK3 activity by 50% is an IC50 value.

T1 sequence (P52333 796-1124): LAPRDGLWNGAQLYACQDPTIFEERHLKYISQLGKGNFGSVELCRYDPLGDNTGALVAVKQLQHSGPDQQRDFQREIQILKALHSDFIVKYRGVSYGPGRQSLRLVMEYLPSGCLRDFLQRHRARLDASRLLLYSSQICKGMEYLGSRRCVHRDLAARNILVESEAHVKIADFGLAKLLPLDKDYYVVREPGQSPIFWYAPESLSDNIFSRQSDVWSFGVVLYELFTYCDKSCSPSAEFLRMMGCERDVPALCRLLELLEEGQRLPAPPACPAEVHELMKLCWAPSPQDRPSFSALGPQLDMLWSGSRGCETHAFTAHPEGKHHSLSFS

| IC50 [nM] | Compound |
| --- | --- |
| 0.56 | NC(=O)c1cnc(Nc2ccc(N3CCOCCC3=O)cn2)cc1NCc1c(F)ccc(F)c1F [Example 12-81] |
| 0.79 | NC(=O)c1cnc(Nc2ccc(N3CCCCCC3=O)cn2)cc1NCc1c(F)ccc(F)c1F [Example 12-79] |
| 0.69 | NC(=O)c1cnc(Nc2ccc(N3CCCCC3=O)cn2)cc1NCc1c(F)ccc(F)c1F [Example 12-54] |
| 0.74 | CN1CCC(=O)N(c2ccc(Nc3cc(NCc4c(F)ccc(F)c4F)c(C(N)=O)cn3)nc2)CC1 [Example 12-74] |
| 0.69 | NC(=O)c1cnc(Nc2ccc(N3C(=O)[C@@H]4CC[C@H]3C4)cn2)cc1NCc1c(F)ccc(F)c1F [Example 12-78] |
| 0.58 | CN1CCN(c2ccc(Nc3cc(NCc4c(F)ccc(F)c4F)c(C(N)=O)cn3)nc2)C(=O)C1 [Example 12-73] |
| 0.25 | CN1CCC(=O)N(c2ccc(Nc3cc(NCc4c(F)cccc4F)c(C(N)=O)cn3)nc2)CC1 [Example 12-97] |
| 0.43 | NC(=O)c1cnc(Nc2ccc(N3CCOCC3=O)cn2)cc1NCc1c(F)ccc(F)c1F [Example 12-76] |
| 0.44 | CN1C(=O)N(c2ccc(Nc3cc(NCc4c(F)ccc(F)c4F)c(C(N)=O)cn3)nc2)C(=O)C1(C)C [Example 12-91] |
| 0.69 | NC(=O)c1cnc(Nc2ccc(N3C(=O)[C@H]4CC[C@@H]3C4)cn2)cc1NCc1c(F)ccc(F)c1F [Example 12-80] |
| 1 | NC(=O)c1cnc(Nc2cnccn2)cc1NCc1c(F)ccc(F)c1F [Example 12-50] |

Second part, the compound before the results:

| Compound | IC50 [nM] |
| --- | --- |
| N#Cc1ccc(N2CC[C@@H](Nc3cc(Nc4cnccn4)ncc3C(N)=O)[C@@H](F)C2)nc1 [Example 5-7] | 0.21 |
| N#Cc1ccc(N2CCC(Nc3cc(Nc4ccncn4)ncc3C(N)=O)CC2)cn1 [Example 5-25] | 0.24 |
| Cc1cnc(Nc2cc(NC3CCN(c4ccc(C#N)nn4)CC3)c(C(N)=O)cn2)cn1 [Example 5-22] | 2 |
| NC(=O)c1cnc(Nc2ccc(C(=O)N3CCCC3)cn2)cc1NCc1c(F)cccc1F [Example 8-6] | 0.74 |
| N#Cc1ccc(N2CCC(Nc3cc(Nc4ccncn4)ncc3C(N)=O)CC2)nn1 [Example 5-18] | 1.1 |
| N#Cc1cnc(N2CC[C@@H](Nc3cc(Nc4ccncn4)ncc3C(N)=O)[C@@H](F)C2)cn1 [Example 5-15] | 1 |
| N#Cc1ccc(N2CC[C@@H](Nc3cc(Nc4ccc(N5CCCCC5=O)cn4)ncc3C(N)=O)[C@@H](F)C2)nc1 [Example 5-55] | 0.74 |
| Cc1nccc(Nc2cc(N[C@@H]3CCN(c4ccc(C#N)cn4)C[C@@H]3F)c(C(N)=O)cn2)n1 [Example 5-26] | 0.39 |
| CN1CCN(C(=O)c2ccc(Nc3cc(NCc4c(F)cccc4F)c(C(N)=O)cn3)nc2)CC1 [Example 8-8] | 1 |
| COC1CCN(C(=O)c2ccc(Nc3cc(NCc4c(F)cccc4F)c(C(N)=O)cn3)nc2)CC1 [Example 8-7] | 0.8 |
| Cc1nccc(Nc2cc(NC3CCN(c4ccc(C#N)cn4)CC3)c(C(N)=O)cn2)n1 [Example 5-9] | 0.36 |
| N#Cc1ccc(N2CC[C@@H](Nc3cc(Nc4cnccn4)ncc3C(N)=O)[C@@H](F)C2)nn1 [Example 5-11] | 0.34 |
| N#Cc1ccc(N2CC[C@@H](Nc3cc(Nc4ccccn4)ncc3C(N)=O)[C@@H](F)C2)nc1 [Example 5-72] | 0.14 |
| COCc1ccc(Nc2cc(N[C@@H]3CCN(c4ccc(C#N)cn4)C[C@@H]3F)c(C(N)=O)cn2)nc1 [Example 5-73] | 0.24 |
| CN1CCCN(C(=O)c2ccc(Nc3cc(NCc4c(F)cccc4F)c(C(N)=O)cn3)nc2)CC1 [Example 8-9] | 1.6 |
| N#Cc1ccc(N2CCC(Nc3cc(Nc4ccc(N5C(=O)[C@H]6CC[C@@H]5C6)cn4)ncc3C(N)=O)CC2)nc1 [Example 5-67] | 0.9 |
| N#Cc1ccc(N2CCC(Nc3cc(Nc4ccc(N5CCCC5=O)cn4)ncc3C(N)=O)CC2)nc1 [Example 5-46] | 0.86 |
| N#Cc1ccc(N2CC[C@@H](Nc3cc(Nc4ccncn4)ncc3C(N)=O)[C@@H](F)C2)nc1 [Example 5-10] | 0.29 |
| Cc1nccc(Nc2cc(NC3CCN(c4ccc(C#N)cc4)CC3)c(C(N)=O)cn2)n1 [Example 5-8] | 0.8 |
